Laboratory results taken from patent US9115137B2, “2,3,4,5-tetrahydro-1H-pyrido[4,3-B]indole compounds and methods of use thereof” (priority 2008, dated 2015).

What was measured:
[1] = target: T1, rat adrenergic α1B receptor (Rattus norvegicus, UniProt P15823); assay: Adrenergic α1B radioligand binding ([3H]Prozosin); conditions: compound at 1 μM; Wistar Rat liver; read-out: Adrenergic (1 μM) α1B, percent inhibition of specific binding
T1 construct: obtained from Wistar Rat liver; from tissue; host or cells: Wistar rat liver
T1 sequence (P15823 1-515): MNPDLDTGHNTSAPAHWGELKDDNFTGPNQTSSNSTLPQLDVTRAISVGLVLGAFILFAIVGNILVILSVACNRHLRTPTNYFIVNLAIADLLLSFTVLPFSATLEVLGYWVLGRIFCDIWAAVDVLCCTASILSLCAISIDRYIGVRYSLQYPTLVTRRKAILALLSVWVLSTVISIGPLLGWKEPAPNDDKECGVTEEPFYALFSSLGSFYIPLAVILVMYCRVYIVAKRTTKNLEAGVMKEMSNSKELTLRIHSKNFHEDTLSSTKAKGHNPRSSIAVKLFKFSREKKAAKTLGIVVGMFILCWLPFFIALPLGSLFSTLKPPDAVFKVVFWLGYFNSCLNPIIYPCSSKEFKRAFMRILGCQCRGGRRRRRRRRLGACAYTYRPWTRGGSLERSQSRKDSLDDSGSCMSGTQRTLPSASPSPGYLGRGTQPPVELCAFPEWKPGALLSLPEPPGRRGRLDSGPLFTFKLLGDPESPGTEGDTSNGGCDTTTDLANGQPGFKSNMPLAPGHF
Procedure: To evaluate in radioligand binding assays the activity of compounds of the invention, rat adrenergic α1B receptor obtained from Wistar Rat liver (Garcia-S'ainz, J. A. et al., Biochem. Biophys. Res. Commun. 186:760, 1992; Michel A. D. et al. Br. J. Pharmacol. 98:883, 1989) in a modified Tris-HCl buffer (50 mM Tris-HCl buffer, pH 7.4, 0.5 mM EDTA) was used. Compounds of the invention were incubated with 0.25 nM [^3H]Prozosin for 60 minutes at 25° C. Non-specific binding was estimated in the presence of 10 μM phentolamine. Receptor proteins were filtered and washed, the filters were then counted to determine [^3H]Prozosin specifically bound. Compounds were screened at 1 μM or lower, using 1% DMSO as vehicle. Compounds of the invention were tested in this biochemical assay and percent inhibition of specific binding was determined. Biochemical assay results are presented as the percent inhibition of specific binding in Table 6.

[2] = target: T2, rat adrenergic α1A receptor (Rattus norvegicus, UniProt P43140); assay: Adrenergic α1A radioligand binding ([3H]Prozosin); conditions: compound at 1 μM; Wistar Rat submaxillary glands; read-out: Adrenergic (1 μM) α1A, percent inhibition of specific binding
T2 construct: obtained from Wistar Rat submaxillary glands; from tissue; host or cells: Wistar rat submaxillary glands
T2 sequence (P43140 1-466): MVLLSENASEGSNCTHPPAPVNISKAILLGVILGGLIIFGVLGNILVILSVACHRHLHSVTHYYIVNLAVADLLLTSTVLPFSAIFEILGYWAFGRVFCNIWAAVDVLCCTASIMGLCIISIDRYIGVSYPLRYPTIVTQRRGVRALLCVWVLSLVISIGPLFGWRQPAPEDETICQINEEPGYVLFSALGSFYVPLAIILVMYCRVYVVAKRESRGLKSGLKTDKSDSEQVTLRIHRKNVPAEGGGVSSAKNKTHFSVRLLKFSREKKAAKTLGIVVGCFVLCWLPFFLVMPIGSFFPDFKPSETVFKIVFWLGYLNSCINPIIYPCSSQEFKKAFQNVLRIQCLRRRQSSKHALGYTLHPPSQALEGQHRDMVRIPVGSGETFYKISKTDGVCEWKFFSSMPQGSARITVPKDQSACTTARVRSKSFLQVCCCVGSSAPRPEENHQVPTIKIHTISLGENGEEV
Procedure: To evaluate in radioligand binding assays the activity of compounds of the invention, rat adrenergic α1A receptor obtained from Wistar Rat submaxillary glands (Michel, A. D. et al., Br. J. Pharmacol. 98:883, 1989) in a modified Tris-HCl buffer (50 mM Tris-HCl buffer, pH 7.4, 0.5 mM EDTA) was used. Compounds of the invention were incubated with 0.25 nM [^3H]Prozosin for 60 minutes at 25° C. Non-specific binding was estimated in the presence of 10 μM phentolamine. Receptor proteins were filtered and washed, the filters were then counted to determine [^3H]Prozosin specifically bound. Compounds of the invention were screened at 1 μM or lower, using 1% DMSO as vehicle. Compounds of the invention were tested in this biochemical assay and percent inhibition of specific binding was determined. Biochemical assay results are presented as the percent inhibition of specific binding in Table 6.

[3] = target: T3, human recombinant adrenergic α2C receptor (Homo sapiens, UniProt P18825); assay: Adrenergic α2C radioligand binding ([3H]MK-912); conditions: compound at 1 μM; insect Sf9 cells; read-out: Adrenergic (1 μM) α2C, percent inhibition of specific binding
T3 construct: expressed in transfected cells; host or cells: insect Sf9 cells
T3 sequence (P18825 1-462): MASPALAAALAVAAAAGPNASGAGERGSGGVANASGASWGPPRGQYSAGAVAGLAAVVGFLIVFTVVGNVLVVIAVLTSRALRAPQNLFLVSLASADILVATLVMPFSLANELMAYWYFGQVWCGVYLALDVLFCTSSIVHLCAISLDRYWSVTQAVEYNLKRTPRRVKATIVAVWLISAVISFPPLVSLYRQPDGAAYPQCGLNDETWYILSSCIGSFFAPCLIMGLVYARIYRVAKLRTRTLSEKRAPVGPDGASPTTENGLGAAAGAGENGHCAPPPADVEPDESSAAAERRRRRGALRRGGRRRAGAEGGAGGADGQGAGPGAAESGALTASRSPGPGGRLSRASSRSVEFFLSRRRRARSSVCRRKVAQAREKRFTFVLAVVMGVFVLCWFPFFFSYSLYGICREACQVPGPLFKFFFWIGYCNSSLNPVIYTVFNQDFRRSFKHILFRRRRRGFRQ
Procedure: To evaluate in radioligand binding assays the activity of compounds of the invention, human recombinant adrenergic α2C receptor expressed in insect Sf9 cells (Uhlen S et al. J Pharmacol Exp Ther. 271:1558, 1994) in a modified Tris-HCl buffer (50 mM Tris-HCl, pH 7.4, 12.5 mM MgCl2, 2 mM EDTA) was used. Compounds of the invention were incubated with 1 nM [^3H]MK-912 for 60 minutes at 25° C. Non-specific binding was estimated in the presence of 10 μM WB-4101. Receptor proteins were filtered and washed, the filters were then counted to determine [^3H]MK-912 specifically bound. Compounds were screened at 1 μM or lower, using 1% DMSO as vehicle. Compounds of the invention were tested in this biochemical assay and percent inhibition of specific binding was determined. Biochemical assay results are presented as the percent inhibition of specific binding in Table 6.

In the case of C#CCn1c2c(c3cc(C)ccc31)CN(C)CC2 [CD73, 2,8-dimethyl-5-(prop-2-ynyl)-2,3,4,5-tetrahydro-1H-pyrido[4,3-b]indole], the inhibition at 1 µM [1] is reported as 84%, the inhibition at 1 µM [2] is reported as 65% and the inhibition at 1 µM [3] is reported as 43%.

For CCOC(=O)CCn1c2c(c3cc(C)ccc31)CN(C)CC2 [CD1, ethyl 3-(1,2,3,4-tetrahydro-2,8-dimethylpyrido[4,3-b]indol-5-yl)propanoate], the inhibition at 1 µM [1] was 42%, the inhibition at 1 µM [2] was 79% and the inhibition at 1 µM [3] was 42%.

Cc1ccc2c(c1)c1c(n2CCNC(=O)C2CCCNC2)CCN(C)C1 (stereo not drawn) [Compound 9, N-(2-(1,2,3,4-tetrahydro-2,8-dimethylpyrido[4,3-b]indol-5-yl)ethyl)piperidine-3-carboxamide] was tested, and the inhibition at 1 µM [1] was 21%, the inhibition at 1 µM [2] was 5% and the inhibition at 1 µM [3] was -8%.

Compound CCNC(=O)CCn1c2c(c3cc(C)ccc31)CN(C)CC2 [Compound 2, N-ethyl-3-(1,2,3,4-tetrahydro-2,8-dimethylpyrido[4,3-b]indol-5-yl)propanamide] has an inhibition at 1 µM [1] of 22%, an inhibition at 1 µM [2] of 10% and an inhibition at 1 µM [3] of 2%.

Cc1ccc2c(c1)c1c(n2CCC(=O)NC2CCCCC2)CCN(C)C1 [Compound 3, N-cyclohexyl-3-(1,2,3,4-tetrahydro-2,8-dimethylpyrido[4,3-b]indol-5-yl)propanamide] gave an inhibition at 1 µM [1] of 14%, an inhibition at 1 µM [2] of 8% and an inhibition at 1 µM [3] of 1%.

With CCNC(=O)CCCn1c2c(c3cc(C)ccc31)CN(C)CC2 [Compound 6, N-ethyl-4-(1,2,3,4-tetrahydro-2,8-dimethylpyrido[4,3-b]indol-5-yl)butanamide] the inhibition at 1 µM [1] was 31%, the inhibition at 1 µM [2] was 18% and the inhibition at 1 µM [3] was 48%.

Cc1ccc2c(c1)c1c(n2CCC(=O)NC2CCCC2)CCN(C)C1 [Compound 4, N-cyclopentyl-3-(1,2,3,4-tetrahydro-2,8-dimethylpyrido[4,3-b]indol-5-yl)propanamide] showed an inhibition at 1 µM [1] of 41%, an inhibition at 1 µM [2] of 35% and an inhibition at 1 µM [3] of 4%.

CCOC(=O)CCCn1c2c(c3cc(C)ccc31)CN(C)CC2 [Compound 5, ethyl 4-(1,2,3,4-tetrahydro-2,8-dimethylpyrido[4,3-b]indol-5-yl)butanoate] gave an inhibition at 1 µM [1] of 77%, an inhibition at 1 µM [2] of 69% and an inhibition at 1 µM [3] of 50%.

Work on Cc1ccc2c(c1)c1c(n2CCNC(=O)OCC(Cl)(Cl)Cl)CCN(C)C1 [Compound 8, 2,2,2-trichloroethyl 2-(1,2,3,4-tetrahydro-2,8-dimethylpyrido[4,3-b]indol-5-yl)ethylcarbamate] yielded an inhibition at 1 µM [1] of 80%, an inhibition at 1 µM [2] of 82% and an inhibition at 1 µM [3] of 22%.

Compound CNC(=O)CCn1c2c(c3cc(C)ccc31)CN(C)CC2 [Compound 1, 3-(1,2,3,4-tetrahydro-2,8-dimethylpyrido[4,3-b]indol-5-yl)-N-methylpropanamide] has an inhibition at 1 µM [1] of 13%, an inhibition at 1 µM [2] of 5% and an inhibition at 1 µM [3] of 4%.

Cc1ccc2c(c1)c1c(n2CC#N)CCN(C)C1 [CD61, 2-(1,2,3,4-tetrahydro-2,8-dimethylpyrido[4,3-b]indol-5-yl)acetonitrile] was tested, and the inhibition at 1 µM [1] was 94%, the inhibition at 1 µM [2] was 82% and the inhibition at 1 µM [3] was 39%.
